Experimental data from patent US20170312253A1 (The Third Affiliated Hospital, Third Military Medical …, priority 2014, published 2017).

How the values were obtained:
[1] = tested on: synapse associated proteins; assay: Western blot of synapse associated proteins; type: in vivo; settings: AD mice vs control group
Protocol: (§1) APPswe/PS1DE9 (AD) transgenic mice were purchased from Jackson Laboratory, USA (No. 005864), raised in the SPF grade animal house of The Third Affiliated Hospital of The Third Military Medical University. All the processes and correlated experiments applied to the mice were approved and filed with the Animal Ethics Committee of the Third Military Medical University. […] Alternatively, the daily dose for the prophylactic group may be 6.4 mg/kg, and the daily dose for the treatment group may be 12.8 mg/kg. […]
(§2) The enzymes related with Aβ formation and degradation their molecule levels, the levels of hyperphosphprylated Tau proteins, and the levels of synaptic plasticity correlated proteins were all detected with Western blot. […] The blotting was detected with the following antibodies: APP C terminal antibody (171610, Millipore), BACE1 antibody (Millipore), Aβ antibody (6E10, Abcam), Nepriiysin antibody (Millipore), RAGE antibody (Millipore), LRP antibody (5A6, Calbiochem), IDE antibody (epitomics), phosphorylated Tau protein antibody, including pS396 (Signalway), pT231 (Signalway), pS199 (epitomics), pS262 (Abcam), SNAP25 antibody (Millipore), Synaptophysin antibody (Millipore), Synapsin I antibody (Millipore), VAMP1 antibody (Millipore), PSD95 antibody (Millipore), F-actin antibody (Actin) (Sigma-Aldrich). […]

Aβ, CTFβ = assay: Western blot of Aβ and CTFβ in brain; type: in vivo; settings: AD mice
Protocol: as §1, §2

α-secretase = α-secretase activity in brain tissues (kit); type: in vivo; settings: AD mice brain
Protocol: (§3) APPswe/PS1DE9 (AD) transgenic mice were purchased from Jackson Laboratory, USA (No. 005864), raised in the SPF grade animal house of The Third Affiliated Hospital of The Third Military Medical University. All the processes and correlated experiments applied to the mice were approved and filed with the Animal Ethics Committee of the Third Military Medical University. […] Alternatively, the daily dose for the prophylactic group may be 6.4 mg/kg, and the daily dose for the treatment group may be 12.8 mg/kg. Administration from 3-month old to 9-month old is the prophylactic test, and administration from 9-month old to 12-month old is the therapeutic test After reaching a stated time, the mice in each group received behavioral tests according to the method in the follows. Three mice in each group were taken for Golgi staining. The remaining mice were overly anaesthetized to receive brain anatomy. One side of the cerebral hemisphere was frozen and then for a biochemical analysis, and the other side of the cerebral hemisphere was fixed with 4% paraform for a histological analysis.
(§4) After homogenating the frozen brain tissues, extraction was conducted with TBS, SDS and formic acid successively. The TBS, SDS and formic acid extracts represent soluble Aβ, loosen senile plaques and compact senile plaques, respectively. […]

Gsk-3β = Gsk-3β (Homo sapiens, UniProt P49841); assay: In vitro test of Gsk-3β activities
Gsk-3β, sequence (P49841 whole entry, species assumed): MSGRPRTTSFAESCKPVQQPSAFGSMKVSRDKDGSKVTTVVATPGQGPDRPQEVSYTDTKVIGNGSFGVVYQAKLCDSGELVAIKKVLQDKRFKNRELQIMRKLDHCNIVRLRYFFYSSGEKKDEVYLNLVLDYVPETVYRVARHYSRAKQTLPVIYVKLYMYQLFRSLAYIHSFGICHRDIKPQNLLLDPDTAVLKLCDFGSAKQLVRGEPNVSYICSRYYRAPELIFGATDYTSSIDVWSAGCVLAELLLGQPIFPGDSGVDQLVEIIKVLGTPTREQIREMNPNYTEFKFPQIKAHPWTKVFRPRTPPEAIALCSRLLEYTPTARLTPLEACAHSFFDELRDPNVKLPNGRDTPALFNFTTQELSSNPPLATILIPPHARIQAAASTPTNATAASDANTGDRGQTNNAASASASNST

β-secretase (BACE1) = assay: Western blot of BACE1 expression in brain; type: in vivo; settings: AD mice brain
Protocol: as §1, §2

neurons = assay: Neuron apoptosis in the brain of AD mice; type: in vivo
Protocol: as §3

RAGE = assay: Western blot of Aβ metabolizing enzymes in brain: RAGE; type: in vivo; settings: AD mice brain
Protocol: as §1, §2

astrocyte = assay: Astrocyte reaction immunostaining (GFAP); type: in vivo; settings: AD mice
Protocol: as §3
Immunohistochemistry in the method of bleach section was carried out according to the previous steps. The primary antibodies were rabbit-anti-mouse CD45 antibody (for labelling microglias), rabbit-anti-mouse GFAP (for labelling astrocytes) and rabbit-anti-mouse pSer396-Tau antibody, respectively. […]

[2] = tested on: oxidation level in the brain; assay: Oxidation level in brain tissues, DNPH Western blotting; type: in vivo; settings: AD mice
Protocol: as §3, with “The remaining mice were overly anaesthetized to receive brain anatomy. One side of the cerebral hemisphere was frozen and then for a biochemical analysis, and the other side of the cerebral hemisphere was fixed with 4% paraform for a histological analysis.” left out
The carbonyl level of the proteins in the tissue reflects the oxidation level in the tissue. DNPH is reacted with the carbonyl of the proteins to form a protein-DNP hydrazone complex, and the level of the complex can he detected with DNPH antibodies so as to assess the oxidation level in the tissue, A 5 μl sample of fresh brain tissues was co-incubated with 12% SDS and a 10 μl DNPH working solution at room temperature for 20 min. […] Samples containing 15 μg total proteins were loaded and detected with Western blot. […]

[3] = tested on: Aβ induced oxidative stress; assay: ROS detection; type: cell-based
Protocol: The ROS detection was performed according to the scheme provided by the manufacturer (Cell Biolabs Inc).

SH-SY5Y cells = assay: MTT cell viability assay, Aβ-treated SH-SY5Y cells; type: cell-based; settings: 1 μM Aβ oligomers, 24 h, dose-dependent
Protocol: The SH-SY5Y cell line was purchased from the Peking Union Hospital Cell Bank, cultured in a humidified incubator under 5% CO2 and 37° C., A MTT cell viability assay was performed according to the instructions in the kit (Sigma). […] The optical density values were determined at a wavelength of 563 nm (Synergy H4, Bio Tek). The neurite growth test was performed according to the method described in the prior documents (see, for example, Wang, Y. J., et al., Effects of proNGF on neuronal viability, neurite growth and amyloid-beta metabolism. Neurotox Res, 2010, 17(3): p. 257-67).

Aβ42 = Aβ42 (Homo sapiens, UniProt P05067); assay: Thioflavin T fluorescence test, inhibition of Aβ aggregation; type: biochemical; settings: 10 μM Aβ 42, Edaravone 0-100 μM, 37° C., two days
Aβ42, sequence (P05067 672-713 limits assumed): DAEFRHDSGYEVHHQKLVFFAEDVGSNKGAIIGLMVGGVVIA

Aβ 40, Aβ 42 = assay: ELISA of Aβ 40, Aβ 42 in brain extracts (TBS, SDS, FA); type: in vivo; settings: AD mice, 2% SDS and FA extracts
Protocol: as §3, §4

activity of α-secretase (α-secretase): increase of the activity of α-secretase
Gsk-3β activities in vitro (Gsk-3β): inhibits the Gsk-3β activities
SMILES: CC1=NN(c2ccccc2)C(=O)C1 [Edaravone, 3-methyl-1-phenyl-2-pyrazolin-5-one]
expressions of the synapse associated proteins [1]: much higher than in the control group
formation of Aβ in the brain (Western blot) (Aβ, CTFβ): reduce the formation of Aβ in the brain
formation of CTFβ (Western blot) (Aβ, CTFβ): decrease the formation of CTFβ
expression of β-secretase (BACE1) (β-secretase (BACE1)): significant decrease
neuron apoptosis in the brain (neurons): significantly reduce the neuron apoptosis
influence on RAGE (RAGE): no influence
astrocyte reaction level in the brain (astrocyte; p.o.): significantly reduced, too
astrocyte reaction in the brain (astrocyte; prophylactic and therapeutic test): all reduced significantly
oxidation level in the brain [2]: significantly reduces the oxidation level
Aβ induced oxidative stress (ROS test) [3]: reverse the Aβ induced oxidative stress
cell survival rate (SH-SY5Y cells): cell survival rate increases significantly
inhibition of Aβ aggregation (thioflavin T) (Aβ42): effectively inhibit Aβ aggregation in a dose-dependent manner
Aβ 40, Aβ 42 levels in brain extracts (Aβ 40, Aβ 42): significantly reduce the levels of Aβ at different, aggregation states
